Laboratory results reported in paper PMC6556873, “Rapid Covalent-Probe Discovery by Electrophile-Fragment Screening” (Journal of the American Chemical Society, 2019).
Read-outs that look alike come from different tables or passages of the source.

Experiments:
[1] = biological target: T1, OTUB2 (OTUB2A) (Homo sapiens, UniProt Q96DC9); parameters: Intact protein LC/MS covalent labelling, fragments in pools of five, 200 uM each, 4 °C; settings: 24 h, 4 °C, pool of five; 200 µM; covalent
T1 construct: full length residues 1-234, E. coli BL21(DE3)-R3, His tag removed by TEV, construct 27312 Da
T1 sequence (Q96DC9 1-234): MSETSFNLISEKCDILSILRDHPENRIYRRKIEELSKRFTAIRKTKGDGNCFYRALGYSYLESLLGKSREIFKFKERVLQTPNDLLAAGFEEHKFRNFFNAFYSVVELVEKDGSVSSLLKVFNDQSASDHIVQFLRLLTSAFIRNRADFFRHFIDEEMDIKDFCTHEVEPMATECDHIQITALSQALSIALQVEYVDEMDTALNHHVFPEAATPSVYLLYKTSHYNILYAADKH
Method: (§1) Incubations were performed at 200 μM for each compound and 2 μM of protein (10 μM for BSA) for 24 h at 4 °C with moderate shaking. Incubation buffers varied among proteins (PBS pH 7.4 for QSOX1 and BSA; 10 mM HEPES pH 7.5, 0.3 M NaCl, 0.5 mM TCEP for PCAF, UPS8, and NUDT7; […]; 10 mM Na2HPO4 pH 7.5 100 mM NaCl 5 mM β-mercaptoethanol for NV3CP; 20 mM Na phosphate pH 7.5 for NNMT; […]. The reaction was stopped by quenching with formic acid, 0.4% final concentration. Each protein was incubated with the electrophilic library in pools of five compounds per well. The pool’s composition maximized the difference in mass between fragments in the same well. Incubations were performed with each fragment at 200 μM, for 24 h at 4 °C, to allow the screening of proteins that are not stable for long time periods at higher temperatures. Following incubation, we used intact protein [compound left out] chromatography/mass spectrometry (LC/MS) to identify the fragments and quantify their labeling (Figure 3A). […] There was good agreement between the percent of labeling of NUDT7 by 100 random individual compounds and that obtained in pools of five (R^2=0.78; Figure S6 and Data set 2 in the Supporting Information).

[2] = biological target: T2, PCAF (Homo sapiens, UniProt Q92831); parameters: Intact protein LC/MS covalent labelling, fragments in pools of five, 200 uM each, 4 °C; settings: 24 h, 4 °C, pool of five; 200 µM; covalent
T2 construct: gene KAT2B
Method: as §1

[3] = biological target: T3, BSA (Bos taurus, UniProt P02769); parameters: Intact protein LC/MS covalent labelling, fragments in pools of five, 200 uM each, 4 °C; settings: 24 h, 4 °C, pool of five; 200 µM; covalent
T3 construct: gene ALB
Method: as §1

[4] = in vitro; parameters: species or system HB2, CCD841; settings: human, hek293 cells
[5] = in vitro; parameters: species or system CCD841, HEK293; settings: human, hb2 cells, read-out: HB-2 Cells Viability (%)
[6] = in vitro; parameters: species or system HB2, HEK293; settings: human, ccd841 cells
[7] = biological target: T4, NUDT7 (Homo sapiens, UniProt P0C024); parameters: Intact protein LC/MS covalent labelling, fragments in pools of five, 200 uM each, 4 °C; settings: 24 h, 4 °C, pool of five; 200 µM; covalent
T4 construct: residues 14-235, E. coli, pNIC28-Bsa4, N-terminal His6 tag removed by TEV, construct 26672 Da
Method: as §1

T3 sequence (P02769 whole entry, the tested form may be a part): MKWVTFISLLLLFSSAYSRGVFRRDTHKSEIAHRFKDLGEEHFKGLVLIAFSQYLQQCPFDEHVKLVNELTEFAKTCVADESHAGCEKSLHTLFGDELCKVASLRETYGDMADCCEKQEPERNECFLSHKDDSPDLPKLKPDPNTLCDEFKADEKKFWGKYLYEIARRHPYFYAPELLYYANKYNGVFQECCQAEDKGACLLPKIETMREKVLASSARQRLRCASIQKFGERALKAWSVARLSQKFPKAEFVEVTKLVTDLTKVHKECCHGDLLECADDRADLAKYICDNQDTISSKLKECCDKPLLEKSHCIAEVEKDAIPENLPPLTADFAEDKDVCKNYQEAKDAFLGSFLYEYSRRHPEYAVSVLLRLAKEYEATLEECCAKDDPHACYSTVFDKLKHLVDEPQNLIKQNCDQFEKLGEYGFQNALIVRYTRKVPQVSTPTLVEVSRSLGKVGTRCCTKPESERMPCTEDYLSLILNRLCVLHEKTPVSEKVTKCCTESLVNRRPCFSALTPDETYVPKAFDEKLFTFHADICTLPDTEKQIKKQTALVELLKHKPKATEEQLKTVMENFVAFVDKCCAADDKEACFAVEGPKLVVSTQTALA
T4 sequence (P0C024 14-235): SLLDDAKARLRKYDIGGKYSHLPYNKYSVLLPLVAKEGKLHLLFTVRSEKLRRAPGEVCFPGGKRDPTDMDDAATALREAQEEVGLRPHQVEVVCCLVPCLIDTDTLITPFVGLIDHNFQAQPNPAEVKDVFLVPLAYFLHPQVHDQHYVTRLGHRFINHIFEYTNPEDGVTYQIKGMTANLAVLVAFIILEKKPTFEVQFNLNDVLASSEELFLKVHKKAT
T2 sequence (Q92831 whole entry, the tested form may be a part): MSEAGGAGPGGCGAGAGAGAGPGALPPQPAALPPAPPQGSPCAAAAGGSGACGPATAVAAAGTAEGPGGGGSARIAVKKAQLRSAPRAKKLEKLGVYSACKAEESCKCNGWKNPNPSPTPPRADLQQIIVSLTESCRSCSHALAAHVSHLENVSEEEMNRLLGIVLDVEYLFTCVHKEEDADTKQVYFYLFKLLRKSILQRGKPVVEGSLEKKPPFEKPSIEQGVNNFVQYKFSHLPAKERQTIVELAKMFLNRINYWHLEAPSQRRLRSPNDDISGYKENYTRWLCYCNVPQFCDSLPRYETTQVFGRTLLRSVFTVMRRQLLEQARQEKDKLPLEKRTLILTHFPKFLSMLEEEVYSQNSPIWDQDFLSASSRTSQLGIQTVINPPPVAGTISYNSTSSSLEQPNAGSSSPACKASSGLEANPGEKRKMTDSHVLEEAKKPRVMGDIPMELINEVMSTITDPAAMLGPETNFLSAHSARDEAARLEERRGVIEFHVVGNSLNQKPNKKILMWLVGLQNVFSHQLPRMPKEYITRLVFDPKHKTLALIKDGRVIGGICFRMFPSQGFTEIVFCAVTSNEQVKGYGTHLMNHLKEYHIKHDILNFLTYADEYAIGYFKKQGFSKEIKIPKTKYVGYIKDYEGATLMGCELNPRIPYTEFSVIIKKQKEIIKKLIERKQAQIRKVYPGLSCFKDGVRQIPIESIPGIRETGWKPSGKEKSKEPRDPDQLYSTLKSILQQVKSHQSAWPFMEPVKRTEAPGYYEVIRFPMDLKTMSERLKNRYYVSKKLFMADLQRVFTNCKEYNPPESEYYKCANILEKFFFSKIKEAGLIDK

Structure (SMILES)	OTUB2 [1]	PCAF [2]	BSA [3]	viability at 48 h, 10 µM [4] [%]	viability at 48 h, 10 µM [5] [%]	viability at 48 h, 10 µM [6] [%]	NUDT7 [7]
O=C(CCl)N(C1CC1)C1CCCc2ccccc21 (stereo not shown) [PCM-0102774]	0	0	0	4	5.8	5.8	–
COc1cc2c(cc1OC)CN(C(=O)CCl)CC2 [PCM-0102317]	0.14	0	0	–	–	–	0.1
C=CC(=O)N1CCCC(c2cnn(C)c2)C1 (stereo not shown) [PCM-0102641]	0	0	0	81.4	107	115	–
O=C(CCl)N1c2ccccc2NC(=O)C12CCCC2 [PCM-0102159]	0	0	0	–	–	–	0.18
C=CC(=O)N1CCCC(Cn2ccnn2)C1 (stereo not shown) [PCM-0102647]	0.09	0	0	102	101	102	–
O=C(CCl)NCC#Cc1ccccc1 [PCM-0103007]	0.6	0	0	59.4	78.1	84.1	–
C=CC(=O)Nc1ccccc1C [PCM-0103000]	0.12	0	0	–	–	–	0
C=CC(=O)N1C2CCC1CC(O)(Cc1ccc(F)cc1F)C2 (stereo not shown) [PCM-0102642]	0	0	0	92.5	102	103	–
O=C(CCl)Nc1nncs1 [PCM-0102427]	0	0	0	99.2	89.6	91	–
Cc1nc(NC(=O)CCl)sc1C [PCM-0102124]	0	0	0	32.2	47.2	66.1	–
C=CC(=O)NC(C)(C)c1cc(C(F)(F)F)on1 [PCM-0102528]	0	0	0	104	99.9	109	–
NS(=O)(=O)c1ccc2c(c1)CCN2C(=O)CCl [PCM-0102229]	0.21	0	0	–	–	–	0
O=C(CCl)N1CCSC1c1ccccc1F (stereo not shown) [PCM-0102293]	0.12	0	0	–	–	–	0.83
CN(Cc1cccc(Cl)c1)C(=O)CCl [PCM-0102976]	0	0	0	31.2	18.9	67.9	–
C=CC(=O)N=C1N=C2C=CC(I)=CN2Cc2ccccc21 [PCM-0102846]	0	0	–	76.9	92.6	87.7	–
O=C(CCl)N1CCC2CCCCC2C1 (stereo not shown) [PCM-0102474]	0	0	0	15.3	24.3	54.4	–
C=CC(=O)NCc1ccc2cnn(C)c2c1 [PCM-0102947]	0	0	0	–	–	–	0
O=C(CCl)NCc1ccccc1 [PCM-0102538]	0.28	0	0	–	–	–	0
Cc1cc(SC#N)ccc1NC(=O)CCl [PCM-0102508]	0	0	0	27.8	14.1	19.6	–

Structure (SMILES)	OTUB2 [1]	PCAF [2]	BSA [3]	viability at 48 h, 10 µM [4] [%]	viability at 48 h, 10 µM [5] [%]	viability at 48 h, 10 µM [6] [%]	NUDT7 [7]
C=CC(=O)Nc1ccc(F)cc1 [PCM-0102111]	0	0	0.2	–	–	–	0
O=C(CCl)N1N=C(c2ccco2)CC1c1cccs1 (stereo not shown) [PCM-0102182]	0	0	0	2	14.9	18.2	–
C=CC(=O)N1CCc2ncsc2C1 [PCM-0102847]	0	0	0	–	–	–	0
O=C(CCl)NC1CCC2(CC1)OCCO2 [PCM-0102820]	0.13	0	0	111	107	96.8	–
CN(C(=O)CCl)c1ccccc1 [PCM-0102368]	0	0	0	–	–	–	0
C=CC(=O)Nc1nc(-c2ccc(O)cc2)cs1 [PCM-0102884]	0	0	0	65.4	75.2	80	–
C=CC(=O)N1CCCC(c2nc(C(F)(F)F)cn2C)C1 (stereo not shown) [PCM-0102633]	–	0	0	106	99.9	118	0
Cc1ccc(CN2CCCN(C(=O)CCl)CC2)cc1.Cl [PCM-0103056]	0	0	0	–	–	–	0
COc1ccc(C(=O)NNC(=O)CCl)cc1 [PCM-0102115]	–	0	0	79.4	91.7	81.5	0.11
O=C(CCl)N1CCc2[nH]c3ccccc3c2C1 [PCM-0102591]	–	0	0	7.5	7.3	61.8	0.22
O=C(CCl)Nc1ccc2c(c1)OC1(CCCC1)O2 [PCM-0102801]	–	0	0	2.8	8.5	59.7	0.1
C=CC(=O)Nc1cc(C)on1 [PCM-0102805]	0	0	0	–	–	–	0
C=CC(=O)Nc1ccc(OC)cc1 [PCM-0103034]	0	0	0	–	–	–	0
Cc1ccccc1CN1CCCN(C(=O)CCl)CC1.Cl [PCM-0102911]	0	0	0	–	–	–	0
O=C(CCl)Nc1ccc2[nH]c(C(F)(F)F)nc2c1 [PCM-0102151]	–	0	0	1.3	7.4	28	0.07
O=C(CCl)NC1CCC(C(F)(F)F)CC1 (stereo not shown) [PCM-0102864]	–	0	0	82.7	99.2	109	0
CC(=O)NC1CCCN(C(=O)CCl)C1 (stereo not shown) [PCM-0102934]	–	0	0	81.8	100	90	0
Cc1ccc(NC(=O)CCl)c(C)c1 [PCM-0103041]	–	0	0	49.9	75.7	70.5	0
